Results as given in patent US8394434B2, “SCF extract containing cardiac glycoside” (Phoenix Biotechnology, Inc., priority 2005, dated 2013).

What was measured:
Human melanoma BRO cells = experiment: Cytotoxicity comparison, crystal violet staining (Example 10); type: cell-based; settings: presented as μM oleandrin concentration in the extract, 72 hr incubation
Procedure: (§1) The extracts also differ in their relative performance as determined by efficacy against several tumor cell lines (Example 10). Oleandrin-containing samples were prepared to contain the same amount of oleandrin although the concentration of oleandrin in each sample varied due to the differences in the concentration of in the extracts. The data obtained are summarized in the table below and in FIGS. 4 and 5.
(§2) The cytotoxic potential of both extracts are compared directly with that of oleandrin. The samples contained the same amounts of oleandrin even though their concentration of oleandrin differed due to the concentration of oleandrin present in the extracts.
(§3) BRO (human melanoma) and Panc-1 (human pancreatic cancer) cells (8×10^3/well) were plated in a 96 well plate and allowed to attach overnight. Drug or extracts were then added to the cells. After 72 hr of incubation, relative cell proliferation (relative to control untreated cells) was assessed by crystal violet staining method.

[1] = test system: Human pancreatic cancer PANC-1 cells; experiment: as above; type: cell-based; settings: presented as μM oleandrin concentration in the extract, 72 hr incubation
Procedure: as §1, §2, §3

PANC-1 cells = experiment: Cell cycle analysis by flow cytometry; type: cell-based, human; settings: 25 nM oleandrin or extract equivalent to 25 nM oleandrin, 24 hrs
Procedure: The effect of oleandrin, the hot-water and SCF extract upon cell cycle changes of PANC-1 cells treated therewith was evaluated over a 24-hour period. Panc-1 cells were treated with 25 nM of oleandrin alone or the amount of hot water extract or supercritical CO2 extract of oleander which was equivalent to 25 nM of oleandrin for 24 hrs. Cell cycle analysis was carried out by flow cytometry. Cell division consists of two consecutive processes, mainly characterized by DNA replication and then segregation of replicated chromosomes into two separate cells. Replication of DNA occurs in a specific part of the interphase called S phase. S phase is preceded by a gap called G1 during which the cell is preparing for DNA synthesis. This is […] then followed by a gap called G2 during which the cell prepares for mitosis. Then this is followed with the mitosis phase, or M phase. G1, S, G2 and M phases are the traditional subdivisions of the standard cell cycle. Cells which are in a G2/M block such as that induced by the supercritical CO2 extract cannot undergo division.
The data are expressed as the relative percentage of cells in a given phase of the cell cycle.

[2] = test system: Akt (pAkt) in Panc-1 cells; experiment: Phosphorylation of Akt, gel electropherogram (FIG. 3); type: cell-based, human
Source text: (§4) FIG. 3 depicts a photograph of the relevant bands of a gel electropherogram obtained as part of an assay comparing the activity of oleandrin, hot-water extract and the SCF extract of the invention toward inhibition of phosphoryation (active form) of Akt and augmentation of (phosphorylation) of Erk.
(§5) Phosphorylation of the serine/threonine kinase known as Akt provides tumor cells with enhanced survival capability. Increased Akt activity promotes survival of tumor cells that would normally undergo death by apoptosis. In addition, pAkt is involved in cell proliferation, angiogenesis, genome instability and cell invasion and migration (Yoeli-Lerner M and Toker A. Akt/PKB Signaling in Cancer. Cell Cycle 5:603-605, 2006). All of these responses contribute to initiation and progression. Further evidence of the importance of Akt signaling in cancer comes from studies which have detected over-expression and hyper-activation (through phosphorylation) of Akt in a wide range of human tumors, and this is often linked with poor prognosis. The relative activity of the hot-water and SCF extract on critical cell signaling proteins in human pancreatic cancer (Panc-1) cells were also compared. […] The relative ability of the supercritical CO2 extract to inhibit pAkt expression is much greater than that of oleandrin or the hot water extract of Nerium oleander. […]

[3] = test system: ERK (pERK) in Panc-1 cells; experiment: Expression of pERK, gel electropherogram (FIG. 3); type: cell-based, human
Source text: as §4, §5

CO[C@H]1C[C@H](O[C@H]2CC[C@@]3(C)[C@H](CC[C@@H]4[C@@H]3CC[C@]3(C)[C@@H](C5=CC(=O)OC5)[C@@H](OC(C)=O)C[C@]43O)C2)O[C@@H](C)[C@@H]1O [Oleandrin, oleandrin]
IC50 (Human melanoma BRO cells): 0.017 µM
IC50 [1]: 0.01 µM
G1 phase, relative percentage of cells (PANC-1 cells): 30.5%
G2/M phase, relative percentage of cells (PANC-1 cells): 26.2%
S phase, relative percentage of cells (PANC-1 cells): 43.3%
inhibition of PI3 Kinase resulting in reduction of phosphorylation of Akt [2]: reduction of phosphorylation of Akt
expression of pERK [3]: dramatically increased
